# Results as given in patent publication US7524930B2, “Tumor antigen” (Green Peptide Co., Ltd, priority 2003, dated 2009).
# Columns and labels:
# OK-CTLp = test: IFN-γ production by OK-CTLp against COS-7 cells cotransfected with cDNA clone and HLA-A0207 cDNA (ELISA); format: cell-based, human; details: result in words
# Protocol: 200 ng of the above-described plasmid DNA pool or clones of Panc-1 cell cDNA library was mixed with 200 ng of the cDNA of HLA-A0207 in 100 μl of Opti-MEM (Invitrogen Corp.) for 30 min. 50 μl of this mixture was added to COS-7 cells (5×10^3) and incubated for 6 h in a 96-well U-bottom type microculture plate (Nunc Corp.) for co-tranduction. Then, RPMI-1640 culture medium containing 10% FCS was added to and culturing was carried out for 2 days, followed by the addition of OK-CTLp (5×10^4) to each well. After a further 18 h incubation, 100 μl of the supernatant was collected and IFN-γ production was measured thereon by ELISA. […]
# From the genes encoding the tumor antigens (Biochim. Biophys. Res. Commun., 281:936-944, 2001), which were detected by the SEREX (Serological Analysis of Recombinant cDNA Expression Libraries) method (Proc. Natl Acad. Sci. USA, 92:11910-[…], 1995) and already reported, two tumor antigen genes, KM-PA-2 and KM-PA-4; which can activate HLA-A2-restricted CTL, were found by using the same method as that of Example 2. […] However, among 1500 or more kinds of tumor antigens detected by this method, those identified as tumor antigens capable of inducing both cell-mediated immunity and humoral immunity are only MAGE-1, tyrosinase, and NY-ESO-1. […]
# HLA-A0201 molecule = biological target: T1, HLA-A0201 molecule (Homo sapiens, UniProt P04439, D140Y/D185E/D98H/E176V/E277Q/G131W/G231S/I119V/I121R/I166T/I218V/L300P/L318F/N151K/N90K/P208A/P217A/Q86G/Q94H/R138H/R169H/T345S); test: Binding activity of peptide to HLA-A0201 molecule on T2 cells (FACScan, MFI); details: peptide 10 μM, positive and negative controls 898 and 490
# T1 construct: endogenous in cells; host or cells: T2 cells (TAP-deficient mutant line)
# Protocol: Binding activity of the peptide to the HLA-A0201 molecule was tested using a T2 cell mutant strain (Cancer Res., 54:1071-1076, 1994. ) The T2 cell expresses the HLA-A2 molecule on a cell surface without binding to a peptide, because of deficiency of TAP. Specifically, the synthesized peptide (10 μM) and the T2 cells were incubated at 26° C. for 3 h and, subsequently, incubated in 5% CO2 and 95% air at 37° C. for 3 h.
# Binding affinity of the peptides to HLA-A0201 molecule was expressed as a relative mean fluorescence intensity (MFI) of the HLA-A2 molecule.
# [1] = test system: peripheral blood mononuclear cells derived from a cancer patient; test: CTL induction by peptide from autologous PBMC of cancer patient, IFN-γ production on recognition of target cells (Example 5); format: cell-based, human; details: for IFN-γ production from peripheral blood mononuclear cells in recognition of target cells: PBMC stimulated with 10 μM peptide
# From the text: Among the peptides that were able to enhance IFN-γ production from the OK-CTLp or OK-CTL clone in Example 4, those from P1 to P19 were examined for their ability to induce CTL from peripheral blood mononuclear cells derived from a cancer patient. The method for inducing CTL by a peptide was according to the well-known method (J. Exp. Med., 187:277-288, 1998; Cancer Res., 59:4056-4063, 1999.) Specifically, autologous peripheral blood mononuclear cells (PBMC) derived from a cancer patient, from whom OK-CTLp was obtained, were incubated together with the peptide (10 μM.) The cells were re-stimulated at day 10 and 14 after the start of culturing, using autologous PBMCs as an antigen presenting cell (APC) which were pulsed with 10 μM of the same peptide for 2 h and exposed to irradiation (30 gray.) At day 21 after the start of culturing, the cells were collected to test for surface phenotype. In addition, the cells were examined for the recognition of various target cells, using IFN-γ production measured by ELISA when they were cultured together with the target cells as an indicator. As a target cells, SW620 cell, CA9-22 cell, and Panc-1 cell, which are the HLA-A2^+ tumor cells, were used.
# [2] = test system: peripheral blood mononuclear cells derived from a cancer patient; test: as above; format: cell-based, human; details: PBMC stimulated with 10 μM peptide
MFI (relative mean fluorescence intensity of the HLA-A2 molecule; binding affinity to HLA-A0201) (HLA-A0201 molecule),Substance,Recognition by OK-CTLp of COS-7 cells cotransfected with the cDNA and HLA-A0207 (IFN-γ production) (OK-CTLp),"Recognition of tumor cells by PBMC stimulated in vitro with peptide (IFN-γ production) ([1]; SW620, CA9-22 and Panc-1 HLA-A2+ tumor cells, result in words)",IFN-γ production from peripheral blood mononuclear cells in recognition of target cells ([1]; target CA9-22 (HLA-A0207/24)),IFN-γ production from peripheral blood mononuclear cells in recognition of target cells ([1]; target Panc-1 (HLA-A0201/11)),IFN-γ production from peripheral blood mononuclear cells in recognition of target cells ([1]; target SW620 (HLA-A0201/24)),IFN-γ production from peripheral blood mononuclear cells in recognition of target cells ([2]; target COLO320 (HLA-A24/24)),IFN-γ production from peripheral blood mononuclear cells in recognition of target cells ([2]; target QG56 (HLA-A26/26)),IFN-γ production from peripheral blood mononuclear cells in recognition of target cells ([2]; target RERF-LC-MS (HLA-A11/11))
–,"KM-PA-2: tumor antigen gene from CFPAC-1 (SEREX), 2060 bp [AB060694], homologous to KIAA0124 / Bop1",induced IFN-γ production from OK-CTLp,–,–,–,–,–,–,–
–,"KM-PA-4: tumor antigen gene from CFPAC-1 (SEREX), 1841 bp, identical to coactosin-like protein (CLP)",induced IFN-γ production from OK-CTLp,–,–,–,–,–,–,–
910,"LIADETSGL [Peptide P3, Gene 1 (UBE2V) 85-93]",–,produced IFN-γ in a significant amount,58 pg/mL,289 pg/mL,188 pg/mL,44 pg/mL,0 pg/mL,0 pg/mL
